How the values were obtained:
KRAS G12D = molecular target: T1, KRAS G12D (Homo sapiens, UniProt P01116, G12D); assay: HTRF nucleotide exchange assay, KRAS G12D; format: biochemical; settings: HTRF nucleotide exchange assay (NEA), class symbols
T1 construct: aa1-188 KRAS WT, HRAS WT, NRAS WT, or KRAS containing the G12D
Protocol: (§1) HTRF Nucleotide Exchange Assay Method
(§2) The capacity of compounds to bind KRAS G12D, other KRAS mutants and wildtype RAS isoforms was quantified using a HTRF nucleotide exchange assay. Recombinant human RAS protein (2 nM; aa1-188 KRAS WT, HRAS WT, NRAS WT, or KRAS containing the G12D, G13D or Q61H amino acid substitutions, or 4 nM KRAS; aa1-188 containing the G12V, G12C, G12A or G12S amino acid substitution, an N-terminal 6× His-tag and leader sequence), and 2 nM Europium-labeled anti-6× His antibody were mixed in assay buffer (10 mM HEPES pH 7.3, 150 mM NaCl, 5 mM MgCl2, 0.05% BSA, 0.0025% NP-40 and 100 mM KF) with various concentrations of compound in a 384-well plate and a volume of 5 μL. After a 60-minute incubation at room temperature, 5 μl of 200 nM EDA-GTP-DY647P1 (diluted in assay buffer) was added to the plate. Following 30-minute incubation at room temperature, time-resolved fluorescence was measured on a PerkinElmer Envision plate reader. DMSO (0.3%) and unlabeled GDP (1 μM) or equivalent tool compound were used to generate the Max and Min assay signals, respectively. Data was analysed using a four-parameter logistic model to calculate IC50 values, with at least two independent replicates were performed for each compound. The results are presented as IC50s in Table 29 where “A” corresponds to an IC50 ≤10 nM, “B” to an IC50 >10 nM up to 100 nM, “C” is >100 nM up to 10 μM, “D” represents <49% inhibition at 10 μM and ND=not determined: […]

KRAS WT = molecular target: T2, KRAS WT (Homo sapiens, UniProt P01116); assay: HTRF nucleotide exchange assay, KRAS WT; format: biochemical; settings: HTRF nucleotide exchange assay (NEA), class symbols
T2 construct: aa1-188 KRAS WT
T2 sequence (P01116 1-188 isoform P01116-2): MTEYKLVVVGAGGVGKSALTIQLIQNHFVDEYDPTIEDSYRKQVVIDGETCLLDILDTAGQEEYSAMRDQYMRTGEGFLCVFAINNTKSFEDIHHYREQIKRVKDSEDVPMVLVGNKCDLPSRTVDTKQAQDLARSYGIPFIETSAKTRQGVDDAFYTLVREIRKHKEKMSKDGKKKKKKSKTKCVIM
Protocol: as §1, §2

T1 sequence (P01116 1-188 isoform P01116-2 G12D): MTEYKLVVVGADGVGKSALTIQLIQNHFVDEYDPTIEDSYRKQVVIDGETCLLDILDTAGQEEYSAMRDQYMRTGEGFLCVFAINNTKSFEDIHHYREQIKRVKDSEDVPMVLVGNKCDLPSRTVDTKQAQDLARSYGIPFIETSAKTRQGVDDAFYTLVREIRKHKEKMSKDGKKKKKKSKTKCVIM

| Structure (SMILES) | IC50 (KRAS G12D) [nM] | IC50 (KRAS WT) [nM] |
| --- | --- | --- |
| CCc1c(F)ccc2cccc(-c3cc4nc(OC[C@@]56CCCN5C[C@H](F)C6)nc(N5CCCn6nc(C(=O)N(C)C)cc6C5)c4c4cn(C)nc34)c12 [Example 63, 5-[4-(8-ethyl-7-fluoro-1-naphthyl)-2-methyl-7-[[(2R,8S)-2-fluoro-1,2,3,5,6,7-hexahydropyrrolizin-8-yl]methoxy]pyrazolo[4,3-f]quinazolin-9-yl]-N,N-dimethyl-4,6,7,8-tetrahydropyrazolo[1,5-a][1,4]diazepine-2-carboxamide] | ≤ 10 | 10 to 100 |
| C#Cc1c(F)ccc2cc(O)cc(-c3c(C)c4nc(OC[C@@]56CCCN5C[C@H](F)C6)nc(N5CCOCC(C)(O)C5)c4c4cn(C)nc34)c12 (stereo partly drawn) [Example 185, 4-[4-(8-ethynyl-7-fluoro-3-hydroxy-1-naphthyl)-7-[[(2R,8S)-2-fluoro-1,2,3,5,6,7-hexahydropyrrolizin-8-yl]methoxy]-2,5-dimethyl-pyrazolo[4,3-f]quinazolin-9-yl]-6-methyl-1,4-oxazepan-6-ol] | 10 to 100 | ≤ 10 |
| CCc1c(F)ccc2cc(O)cc(-c3c(F)c4nc(OCC5COCCN5)nc(N5CCOCC(C)(O)C5)c4c4cn(C)nc34)c12 (stereo not shown) [Example 233, 4-[4-(8-ethyl-7-fluoro-3-hydroxy-1-naphthyl)-5-fluoro-2-methyl-7-(morpholin-3-ylmethoxy)pyrazolo[4,3-f]quinazolin-9-yl]-6-methyl-1,4-oxazepan-6-ol] | ≤ 10 | 10 to 100 |
| CCc1c(F)ccc2cc(O)cc(-c3c(C)c4nc(OCC5(C)C[C@@H](O)CN5C)nc(N5CCOCC(C)(O)C5)c4c4cn(C)nc34)c12 (stereo partly drawn) [Example 141, 4-[4-(8-ethyl-7-fluoro-3-hydroxy-1-naphthyl)-2,5-dimethyl-7-[[(4R)-4-hydroxy-1,2-dimethyl-pyrrolidin-2-yl]methoxy]pyrazolo[4,3-f]quinazolin-9-yl]-6-methyl-1,4-oxazepan-6-ol] | ≤ 10 | ≤ 10 |
| CCc1c(F)ccc2cc(O)cc(-c3c(F)c4nc(OC[C@@H]5CCN5C)nc(N5CCOCC(C)(O)C5)c4c4cn(C)nc34)c12 (stereo partly drawn) [Example 158, 4-[4-(8-ethyl-7-fluoro-3-hydroxy-1-naphthyl)-5-fluoro-2-methyl-7-[[(2S)-1-methylazetidin-2-yl]methoxy]pyrazolo[4,3-f]quinazolin-9-yl]-6-methyl-1,4-oxazepan-6-ol] | ≤ 10 | ≤ 10 |

Now from value to compound:

| IC50 (KRAS G12D) [nM] | IC50 (KRAS WT) [nM] | Structure (SMILES) |
| --- | --- | --- |
| ≤ 10 | ≤ 10 | CCc1c(F)ccc2cc(O)cc(-c3cc4nc(OC[C@@]56CCCN5C[C@H](F)C6)nc(N5CCCn6nc(CO)cc6C5)c4c4cn(C)nc34)c12 [Example 94, 5-ethyl-6-fluoro-4-[9-[2-(hydroxymethyl)-4,6,7,8-tetrahydropyrazolo[1,5-a][1,4]diazepin-5-yl]-2-methyl-7-[[(2R,8S)-2-fluoro-1,2,3,5,6,7-hexahydropyrrolizin-8-yl]methoxy]pyrazolo[4,3-f]quinazolin-4-yl]naphthalen-2-ol] |
| ≤ 10 | ≤ 10 | C#Cc1c(F)ccc2cc(O)cc(-c3c(C)c4nc(OC[C@@]56CCCN5C[C@H](F)C6)nc(N5CCCn6nc(C(=O)N(C)C)cc6C5)c4c4cn(C)nc34)c12 [Example 97, 5-[4-(8-ethynyl-7-fluoro-3-hydroxy-1-naphthyl)-2,5-dimethyl-7-[[(2R,8S)-2-fluoro-1,2,3,5,6,7-hexahydropyrrolizin-8-yl]methoxy]pyrazolo[4,3-f]quinazolin-9-yl]-N,N-dimethyl-4,6,7,8-tetrahydropyrazolo[1,5-a][1,4]diazepine-2-carboxamide] |
| ≤ 10 | ≤ 10 | CCc1c(F)ccc2cc(O)cc(-c3c(F)c4nc(OCC5(CN6CCC(C(F)(F)F)CC6)CC5)nc(N5CCOCC(C)(O)C5)c4c4cn(C)nc34)c12 (stereo not shown) [Example 218, 4-[4-(8-ethyl-7-fluoro-3-hydroxy-1-naphthyl)-5-fluoro-2-methyl-7-[[1-[[4-(trifluoromethyl)-1-piperidyl]methyl]cyclopropyl]methoxy]pyrazolo[4,3-f]quinazolin-9-yl]-6-methyl-1,4-oxazepan-6-ol] |

From patent publication US20260347364A1, “PYRAZOLO[4,3-F]QUINAZOLINE DERIVATIVES AS MODULATORS OF G12D MUTANT KRAS USEFUL FOR THE TREATMENT OF CANCER” (JAZZ PHARMACEUTICALS IRELAND LTD., priority 2023, published 2026)
